In patent publication US20180016593A1, “HERBICIDE-RESISTANT SUNFLOWER PLANTS, POLYNUCLEOTIDES ENCODING HERBICIDE-RESISTANT ACETOHYDROXYACID SYNTHASE LARGE SUBUNIT PROTEINS, AND METHODS OF USE” (priority 2005, published 2018):
Like-named read-outs stand apart in the source and are kept apart here.

Experiments:
[1] = test system: sunflower TH11 (Hybrid, A122T); type: in vivo, Helianthus annuus; settings: 14 DAT
Procedure: (§1) A greenhouse study was conducted to quantify and contrast the imazapir sensivity of the mutants A122T and A205V in different genetic backgrounds at the whole plant level in sunflower. Seeds of the different sunflower lines that were used in this study were obtained under field conditions.
(§2) Seeds were sown in Petri dishes and, after germination, plantlets were transplanted to pots of 10 cm of diameter in a potting media consisting of equal parts of vermiculite, soil and sand. Plants were grown in a greenhouse under natural light conditions supplemented with 400 W sodium halide lamps to provide a 16 hrs daylength. Day/night temperatures were 25 and 20° C., respectively. At the V2 stage 10 plants of each genotype were randomly assigned to each treatment consisting of […] imazapir doses (0, 40, 80, 160, 240, 320, 400 and 480 g ai/ha), and a zero-time biomass determination. Experiment was arranged as a randomized block design with a full factorial (sunflower line×treatment) arrangement of treatments and 10 replications.
(§3) On the day of herbicide application ten plants of each genotype were cut at the cotyledonal node and dried at 60° C. for 48 hrs zero-time for dried weight determination.
(§4) Height was determined as the distance between the cotyledonal node and the apex of each plant. For root biomass determination, each plant was taken from the pot and the potting media was washed out from the roots. Above ground biomass data from each line were converted to biomass accumulation after application by subtracting the appropriate average zero-time biomass from each sample. Dry biomass data were converted to percentages of the untreated control plants within each line to allow direct comparisons between groups. […]

[2] = test system: sunflower TH10 (Restorer Line, A205V); type: in vivo, Helianthus annuus; settings: 14 DAT
Procedure: as §1, §2, §3, §4

[3] = test system: sunflower TH6 (Hybrid, A122T); type: in vivo, Helianthus annuus; settings: 14 DAT
Procedure: as §1, §2, §3, §4

[4] = test system: Clearfield sunflower variety A; experiment: Greenhouse spray injury rating (Example 5); type: in vivo; settings: in vivo
Source text: (§5) Methods: Sunflower lines S4897, Clearfield® sunflower varieties A, B, C and a conventional non-Clearfield variety were sprayed with three rates of imazamox (Raptor™), 100, 200 and 300 gm ai/ha plus 0.5% Sun It II and two rates of imazapyr (Arsenal™) 160 and 360 gm ai/ha plus 0.5% Sun It II when the plants were at the two to three leaf stage. Ratings were taken at 14 days after application (DAT) for injury. Injury was rated on a scale from 0 to 9 where […] to 9=dead plant. Twelve plants were sprayed per herbicide/rate treatment. Statistical analysis was conducted with STATGRAPHICS Plus 5.0 by using ANOVA and LSD procedures.
(§6) Results: After plants were sprayed, it was realized that a height difference between S4897 and other sunflower varieties would have impacted the actual herbicide dose that was delivered. The spray boom height had been calibrated against S4897 and since the other varieties were taller and closer to the boom they would have received a greater dose of herbicide. Rates were recalibrated for the other varieties to determine the approximate dose they would have received. Assessments were made as presented in Table 2 since it was not possible to make a direct rate comparison due to the effect of the height. For example injury scores were compare for S4897 treated imazamox rate 100 gm ai/ha to the other varieties treated at 75 gm ai/ha. The treatment dose of 300 gm ai/ha for line S4897 was equivalent to the treatment of 200 gm ai/ha for the other varieties, which approximately was 300 gm ai/ha.

[5] = test system: Clearfield sunflower variety B; experiment: Greenhouse spray injury rating (Example 5); type: in vivo; settings: in vivo
Source text: as §5, §6

[6] = test system: conventional non-Clearfield variety; experiment: Greenhouse spray injury rating (Example 5); type: in vivo; settings: in vivo
Source text: as §5, §6

[7] = test system: Clearfield sunflower variety C; experiment: Greenhouse spray injury rating (Example 5); type: in vivo; settings: in vivo
Source text: as §5, §6

CC(C)C1(C)N=C(c2ncccc2C(=O)O)NC1=O (stereo not shown) [imazapyr]
Phytotoxicity Index ([1]; 0.5x (40 g ai/ha)): 0.4
biomass accumulation (above ground dry weight) ([1]; 0.5x (40 g ai/ha)): 96.6 % of untreated plots
plant height ([1]; 0.5x (40 g ai/ha)): 100.4 % of untreated plots
root dry weight ([1]; 0.5x (40 g ai/ha)): 100 % of untreated plots
Phytotoxicity Index ([1]; 1x (80 g ai/ha)): 0.4
biomass accumulation (above ground dry weight) ([1]; 1x (80 g ai/ha)): 93.9 % of untreated plots
plant height ([1]; 1x (80 g ai/ha)): 99.9 % of untreated plots
root dry weight ([1]; 1x (80 g ai/ha)): 99.0 % of untreated plots
Phytotoxicity Index ([1]; 2x (160 g ai/ha)): 0.4
biomass accumulation (above ground dry weight) ([1]; 2x (160 g ai/ha)): 81.6 % of untreated plots
plant height ([1]; 2x (160 g ai/ha)): 92.0 % of untreated plots
root dry weight ([1]; 2x (160 g ai/ha)): 86.1 % of untreated plots
Phytotoxicity Index ([1]; 3x (240 g ai/ha)): 0.5
biomass accumulation (above ground dry weight) ([1]; 3x (240 g ai/ha)): 75.8 % of untreated plots
plant height ([1]; 3x (240 g ai/ha)): 90.5 % of untreated plots
root dry weight ([1]; 3x (240 g ai/ha)): 81.5 % of untreated plots
Phytotoxicity Index ([1]; 4x (320 g ai/ha)): 1.0
biomass accumulation (above ground dry weight) ([1]; 4x (320 g ai/ha)): 75.0 % of untreated plots
plant height ([1]; 4x (320 g ai/ha)): 90.8 % of untreated plots
root dry weight ([1]; 4x (320 g ai/ha)): 72.6 % of untreated plots
Phytotoxicity Index ([1]; 5x (400 g ai/ha)): 2.0
biomass accumulation (above ground dry weight) ([1]; 5x (400 g ai/ha)): 60.1 % of untreated plots
plant height ([1]; 5x (400 g ai/ha)): 84.4 % of untreated plots
root dry weight ([1]; 5x (400 g ai/ha)): 68.9 % of untreated plots
Phytotoxicity Index ([1]; 6x (480 g ai/ha)): 2.5
biomass accumulation (above ground dry weight) ([1]; 6x (480 g ai/ha)): 59.6 % of untreated plots
plant height ([1]; 6x (480 g ai/ha)): 84.4 % of untreated plots
root dry weight ([1]; 6x (480 g ai/ha)): 45.3 % of untreated plots
Phytotoxicity Index ([2]; 0.5x (40 g ai/ha)): 0
biomass accumulation (above ground dry weight) ([2]; 0.5x (40 g ai/ha)): 99.2 % of untreated plots
plant height ([2]; 0.5x (40 g ai/ha)): 99.2 % of untreated plots
root dry weight ([2]; 0.5x (40 g ai/ha)): 90.3 % of untreated plots
Phytotoxicity Index ([2]; 1x (80 g ai/ha)): 0
biomass accumulation (above ground dry weight) ([2]; 1x (80 g ai/ha)): 85.0 % of untreated plots
plant height ([2]; 1x (80 g ai/ha)): 98.1 % of untreated plots
root dry weight ([2]; 1x (80 g ai/ha)): 69.9 % of untreated plots
Phytotoxicity Index ([2]; 2x (160 g ai/ha)): 3.1
biomass accumulation (above ground dry weight) ([2]; 2x (160 g ai/ha)): 58.1 % of untreated plots
plant height ([2]; 2x (160 g ai/ha)): 63.6 % of untreated plots
root dry weight ([2]; 2x (160 g ai/ha)): 41.3 % of untreated plots
Phytotoxicity Index ([2]; 3x (240 g ai/ha)): 3.9
biomass accumulation (above ground dry weight) ([2]; 3x (240 g ai/ha)): 48.1 % of untreated plots
plant height ([2]; 3x (240 g ai/ha)): 51.9 % of untreated plots
root dry weight ([2]; 3x (240 g ai/ha)): 42.8 % of untreated plots
Phytotoxicity Index ([2]; 4x (320 g ai/ha)): 5.9
biomass accumulation (above ground dry weight) ([2]; 4x (320 g ai/ha)): 28.8 % of untreated plots
plant height ([2]; 4x (320 g ai/ha)): 27.5 % of untreated plots
root dry weight ([2]; 4x (320 g ai/ha)): 22.3 % of untreated plots
Phytotoxicity Index ([2]; 5x (400 g ai/ha)): 6.9
biomass accumulation (above ground dry weight) ([2]; 5x (400 g ai/ha)): 27.4 % of untreated plots
plant height ([2]; 5x (400 g ai/ha)): 26.0 % of untreated plots
root dry weight ([2]; 5x (400 g ai/ha)): 22.7 % of untreated plots
Phytotoxicity Index ([2]; 6x (480 g ai/ha)): 6.7
biomass accumulation (above ground dry weight) ([2]; 6x (480 g ai/ha)): 24.9 % of untreated plots
plant height ([2]; 6x (480 g ai/ha)): 29.3 % of untreated plots
root dry weight ([2]; 6x (480 g ai/ha)): 16.4 % of untreated plots
Phytotoxicity Index ([3]; 0.5x (40 g ai/ha)): 0.5
biomass accumulation (above ground dry weight) ([3]; 0.5x (40 g ai/ha)): 100 % of untreated plots
plant height ([3]; 0.5x (40 g ai/ha)): 99.2 % of untreated plots
root dry weight ([3]; 0.5x (40 g ai/ha)): 100 % of untreated plots
Phytotoxicity Index ([3]; 1x (80 g ai/ha)): 0.5
biomass accumulation (above ground dry weight) ([3]; 1x (80 g ai/ha)): 97.2 % of untreated plots
plant height ([3]; 1x (80 g ai/ha)): 98.6 % of untreated plots
root dry weight ([3]; 1x (80 g ai/ha)): 98.1 % of untreated plots
Phytotoxicity Index ([3]; 2x (160 g ai/ha)): 0.5
biomass accumulation (above ground dry weight) ([3]; 2x (160 g ai/ha)): 97.9 % of untreated plots
plant height ([3]; 2x (160 g ai/ha)): 100.3 % of untreated plots
root dry weight ([3]; 2x (160 g ai/ha)): 98.2 % of untreated plots
Phytotoxicity Index ([3]; 3x (240 g ai/ha)): 0.5
biomass accumulation (above ground dry weight) ([3]; 3x (240 g ai/ha)): 98.2 % of untreated plots
plant height ([3]; 3x (240 g ai/ha)): 99.8 % of untreated plots
root dry weight ([3]; 3x (240 g ai/ha)): 79.3 % of untreated plots
Phytotoxicity Index ([3]; 4x (320 g ai/ha)): 0.5
biomass accumulation (above ground dry weight) ([3]; 4x (320 g ai/ha)): 97.8 % of untreated plots
plant height ([3]; 4x (320 g ai/ha)): 101.0 % of untreated plots
root dry weight ([3]; 4x (320 g ai/ha)): 78.4 % of untreated plots
Phytotoxicity Index ([3]; 5x (400 g ai/ha)): 0.5
biomass accumulation (above ground dry weight) ([3]; 5x (400 g ai/ha)): 85.1 % of untreated plots
plant height ([3]; 5x (400 g ai/ha)): 87.0 % of untreated plots
root dry weight ([3]; 5x (400 g ai/ha)): 85.8 % of untreated plots
Phytotoxicity Index ([3]; 6x (480 g ai/ha)): 0.5
biomass accumulation (above ground dry weight) ([3]; 6x (480 g ai/ha)): 79.5 % of untreated plots
plant height ([3]; 6x (480 g ai/ha)): 79.6 % of untreated plots
root dry weight ([3]; 6x (480 g ai/ha)): 57.3 % of untreated plots
Injury (scale 0 to 9) [4]: 5.0 c
Injury (scale 0 to 9) [5]: 4.3 b
Injury (scale 0 to 9) [6]: 8.2 days
Injury (scale 0 to 9) [7]: 4.9 c
